Test results as given in patent US12291508B2, “Hydrazide containing nuclear transport modulators and uses thereof” (Karyopharm Therapeutics Inc., priority 2011, dated 2025).
Structures can show the parent of a compound that is named as a salt. Where two headings read alike, the source gives them in different places.

How the values were obtained:
BT-20 TNBC Basal B cells = experiment: Nuclear localization of FOXO3a and IκB, BT-20; format: cell-based; details: BT-20, 1 μM, 24 hours
Protocol: MDA-MB-468 TNBC Basal A and BT-20 TNBC Basal B cells were exposed to DMSO or 1 μM Compound 1-3 for 24 hours and then stained for FOXO3a or IκB with or without DAPI nuclear stain. The stained cells were examined for nuclear localization.

HS578T cells = experiment: Long-term growth assay, HS578T; format: cell-based; details: 1 μM, 7 days, crystal violet
Excerpt: At the end of the assay, media was removed from the cells and the remaining cells were stained with crystal violet.

[1] = system: MDA-MB-468 triple negative breast cancer cells; details: oral, day 33 post inoculation
Protocol: MDA-MB-468 (ATCC #HTB-132)triple negative breast cancer cells were obtained from ATCC. These cells were grown in Leibovitz's L-15 medium supplemented with 10% fetal calf serum (FCS), 1% penicillin and streptomycin, and 2 mM L-glutamine. Cells were sub-cultured by dilution at a ratio of 1:3. Fifty (50) female SCID mice (Charles River Labs), aged 5 to 6 weeks, with a mean pre-treatment body weight of 19.2 grams were used. SCID mice were inoculated s.c. in the left flank with 5×10^6 MDA-MB-468 cells. When the tumors reached a mean size of between 100 and 200 mm^3, mice were randomly and prospectively divided into a vehicle control group of ten (10) mice and five treatment groups of eight (8) mice per group.
All administrations were via the oral route. Animals were fed with sterile Labdiet® 5053 (pre-sterilized) rodent chow and sterile water was provided ad libitum. Tumors were measured once every two days with micro-calipers, and tumor volume was calculated as (length×width×width)/2. All animals were weighed every day in order to assess differences in weight among treatment groups and monitor wellness of animals. […] Any animals with a tumor over 1500 mm^3 in volume were also euthanized. Survival was recorded daily. […] Statistical differences between treatment groups were determined using Mann-Whitney Rank Sum or ANOVA tests with a critical value of 0.05.

[2] = system: PMA-induced male BALB/c psoriatic mice; format: in vivo; details: 10 mg/kg oral, M-W-F
Protocol: BALB/c mice were housed in individually ventilated cages in a controlled environment (temperature 22±1° C., humidity 70±5%, and 12 h light/12 h dark cycle) in the animal facility. The mice had access to commercially available feed pellets and UV-treated potable water ad libitum. 4 mice were housed per individually ventilated cage. Each animal in the cage was identified by a tail. 8 mice per group mice were randomized into different treatment groups according to body weight. Following randomization the mean body weight for all groups was equivalent. Study design was Group 1: Naïve, 1% DMSO vehicle (10-30 ul, topical once daily), Group 2: PMA, 1% DMSO vehicle (10-30 ul, topical once daily), Group 3: PMA, 1-4 10 mg/kg in PVP/Pluronics (oral, M-W-F; Day 1-Day 3-Day 5-Day 7), Group 4: PMA, 0.1% betamethasone—25 mg (reference standard) (topical once daily)
4 ug Phorbol 12-myristate 13-acetate (PMA) in 20 uL of acetone was applied every day to mouse ears. Starting from Day 2, PMA-induction of dermal inflammation/psoriasis manifested with increases in clinical disease activity index associated with increased thickness of ear, scaling of ear-skin, and folding of ear-skin. The following parameters were evaluated: (i) the thickness of the ear, (ii) scaling on the skin of ear. This will be based on a scoring index—0, no scaling; 1, mild scaling; 2, moderate scaling; 3, severe scaling. […]

[3] = system: antibody-induced male BALB/c arthritic mice; experiment: Monoclonal-antibody induced arthritis (CAIA); format: in vivo; details: 4, 7.5, 15 mg/kg PO, Day 4, 6, 8, 10
Protocol: The health status of the animals was examined on arrival. Only animals in good health were acclimatized to laboratory conditions and were used in the study. Animals were provided ad libitum a commercial rodent diet and free access to drinking water, supplied to each cage via polyethylene bottles with stainless steel sipper tubes. Automatically controlled environmental conditions were set to maintain temperature at 20-24° C. with relative humidity (RH) of 30-70%, a 12:12 hour light:dark cycle and 10-30 air changes/hr in the study room Temperature, RH and light cycle were monitored daily by the control computer. Animals were given a unique animal identification number and on Day 0 of the study each animal received a tail vein injection of antibody cocktail (200 uL of 10 mg/mL). The antibody cocktail was supplied by MD Biosciences (Catalog #: CIA-MAB-50). On day 3, post the single mAb administration, all animals were subjected to LPS (200 uL of 0.5 mg/mL) administration by a single intraperitoneal (IP) injection. […]
Animals found in a moribund condition, animals with broken skin on an arthritic paw, or with a greater than a 20% decrease in body weight and animals showing severe pain and enduring signs of severe distress were humanely euthanized. Severe pain or distress was assessed on a case by case basis by experienced animal technicians. […]

Compound	localization of FOXO3a and IκB (BT-20 TNBC Basal B cells)	long-term growth (HS578T cells)	inhibition of tumor growth compared with vehicle-treated animals ([1]; 5 mg/kg Monday, Wednesday, Friday)	inhibition of tumor growth compared with vehicle-treated animals ([1]; 25 mg/kg Monday, Thursday regimen) [%]	efficacy relative to positive control betamethasone [2]	mean ear thickness ([2]; compared to vehicle)	mean body weight (rate of weight gain) ([3]; compared to vehicle or dexamethasone)	mean total paw clinical arthritic score ([3]; compared with vehicle)
O=C(/C=C\n1cnc(-c2cc(C(F)(F)F)cc(C(F)(F)F)c2)n1)NNc1cnccn1 [Compound I-3, (Z)-3-(3-(3,5-bis(trifluoromethyl)phenyl)-1H-1,2,4-triazol-1-yl)-N′-(pyrazin-2-yl)acrylohydrazide]	both FOXO3a and IκB were localized in the cell nucleus	inhibited the long-term growth	approximately 60%	~100	–	–	–	–
O=C(/C=C\n1cnc(-c2cc(C(F)(F)F)cc(C(F)(F)F)c2)n1)NNc1ccccn1 [Compound I-4, (Z)-3-(3-(3,5-bis(trifluoromethyl)phenyl)-1H-1,2,4-triazol-1-yl)-N′-(pyridin-2-yl)acrylohydrazide hydrochloride]	–	–	–	–	comparable to positive control betamethasone	reduced mean ear thickness in a statistically significant manner	increased the rate of weight gain	significantly decreased the total score
